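Cells were grown in 96-well plates and exposed to each compound for 48 hours at five concentrations; endpoints were interpolated linearly between bracketing concentrations, or set to the highest concentration if not reached. GI50 marks 50% less growth.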 Active and inactive are the calls of the source. Rule as the data show it: active = GI50 up to about 1.1 µM and inactive = higher.
Assays:
Assay in all cases: inhibition of tumour cell growth, NCI panel, 48 h
786-0 = test system: 786-0
A498 = test system: A498
A549 = test system: A549
ACHN = test system: ACHN
BT-549 = test system: BT-549
CAKI-1 = test system: CAKI-1
CCRF-CEM = test system: CCRF-CEM
COLO 205 = test system: COLO 205
DU-145 = test system: DU-145
EKVX = test system: EKVX
HCC 2998 = test system: HCC 2998
HCT-116 = test system: HCT-116
HCT-15 = test system: HCT-15
HL-60 = test system: HL-60
HOP-62 = test system: HOP-62
HOP-92 = test system: HOP-92
HT-29 = test system: HT-29
Hs-578T = test system: Hs-578T
IGROV-1 = test system: IGROV-1
K562 = test system: K562
KM12 = test system: KM12
LOX IMVI = test system: LOX IMVI
M14 = test system: M14
MCF7 = test system: MCF7
MDA-MB-231 = test system: MDA-MB-231
MDA-MB-435 = test system: MDA-MB-435
MDA-N = test system: MDA-N
MOLT-4 = test system: MOLT-4
Malme-3M = test system: Malme-3M
NCI-H226 = test system: NCI-H226
NCI-H23 = test system: NCI-H23
NCI-H460 = test system: NCI-H460
NCI-H522 = test system: NCI-H522
NCI/ADR-RES = test system: NCI/ADR-RES
OVCAR-3 = test system: OVCAR-3
OVCAR-4 = test system: OVCAR-4
OVCAR-5 = test system: OVCAR-5
OVCAR-8 = test system: OVCAR-8
PC-3 = test system: PC-3
RPMI-8226 = test system: RPMI-8226
RXF 393 = test system: RXF 393
SF-268 = test system: SF-268
SF-295 = test system: SF-295
SF-539 = test system: SF-539
SK-MEL-28 = test system: SK-MEL-28
SK-MEL-2 = test system: SK-MEL-2
SK-MEL-5 = test system: SK-MEL-5
SK-OV-3 = test system: SK-OV-3
SN12C = test system: SN12C
SNB-19 = test system: SNB-19
SNB-75 = test system: SNB-75
SR = test system: SR
SW-620 = test system: SW-620
T47D = test system: T47D
TK-10 = test system: TK-10
U-251 = test system: U-251
UACC-257 = test system: UACC-257
UACC-62 = test system: UACC-62
UO-31 = test system: UO-31

Measured: GI50

N#Cc1c(-c2ccccc2)c(/N=N/c2ccc(F)cc2)c(=O)n2c1[nH]c1ccccc12
inactive: 786-0 3.65 µM | A498 8.02 µM | A549 3.08 µM | ACHN 5.64 µM | BT-549 8.85 µM | CAKI-1 3.92 µM | CCRF-CEM 1.26 µM | COLO 205 3.43 µM | DU-145 4.48 µM | EKVX 2.45 µM | HCC 2998 6.24 µM | HCT-116 2.03 µM | HL-60 1.46 µM | HOP-62 6.15 µM | HOP-92 2.18 µM | HT-29 2.92 µM | Hs-578T 4.43 µM | IGROV-1 2.69 µM | K562 3.18 µM | KM12 3.15 µM | LOX IMVI 9.35 µM | M14 3.54 µM | MCF7 4.51 µM | MDA-MB-231 5.21 µM | MDA-MB-435 4.7 µM | MDA-N 4.17 µM | MOLT-4 2.3 µM | Malme-3M 7.6 µM | NCI-H226 7.28 µM | NCI-H23 5.28 µM | NCI-H460 2.31 µM | NCI-H522 2.18 µM | NCI/ADR-RES 3 µM | OVCAR-3 2.14 µM | OVCAR-4 4.09 µM | OVCAR-5 5.94 µM | OVCAR-8 2.34 µM | PC-3 3.4 µM | RXF 393 10.4 µM | SF-268 6.43 µM | SF-295 5.25 µM | SF-539 10.9 µM | SK-MEL-28 8.39 µM | SK-MEL-2 18.2 µM | SK-MEL-5 1.53 µM | SK-OV-3 4.86 µM | SN12C 1.84 µM | SNB-19 5.05 µM | SNB-75 13.2 µM | SR 3.81 µM | SW-620 4.28 µM | T47D 4.05 µM | TK-10 5.57 µM | U-251 3.66 µM | UACC-257 3.21 µM | UACC-62 4.82 µM | UO-31 2.97 µM
active: RPMI-8226 0.708 µM
3.33 µM: HCT-15

O=C1c2ccccc2C(=O)c2c1ccc1nc3c(nc21)-c1c2ccccc2cc2cccc-3c12
inactive: 786-0 21.5 µM | A498 > 50.9 µM | A549 45.6 µM | ACHN 16.1 µM | BT-549 80.2 µM | CAKI-1 23.4 µM | CCRF-CEM 5.33 µM | COLO 205 90.8 µM | DU-145 29.2 µM | EKVX 18.3 µM | HCC 2998 > 95.3 µM | HCT-116 5.56 µM | HL-60 10 µM | HOP-62 26.5 µM | HOP-92 > 73.8 µM | HT-29 27 µM | Hs-578T 13.7 µM | IGROV-1 9.16 µM | K562 > 29.6 µM | KM12 8.36 µM | LOX IMVI 19.9 µM | M14 32.4 µM | MCF7 17.6 µM | MDA-MB-231 74.1 µM | MDA-MB-435 18.6 µM | MDA-N 32.6 µM | MOLT-4 18.6 µM | Malme-3M 51.9 µM | NCI-H226 > 68.9 µM | NCI-H23 41.6 µM | NCI-H460 26.2 µM | NCI-H522 27.2 µM | NCI/ADR-RES 36.3 µM | OVCAR-3 43.8 µM | OVCAR-4 > 70.1 µM | OVCAR-5 > 100 µM | OVCAR-8 27.4 µM | PC-3 41.9 µM | RPMI-8226 39.5 µM | RXF 393 39.4 µM | SF-268 29.4 µM | SF-295 21.4 µM | SF-539 21.4 µM | SK-MEL-28 > 92.7 µM | SK-MEL-2 68.9 µM | SK-MEL-5 46.7 µM | SK-OV-3 41.1 µM | SN12C 35.8 µM | SNB-19 38.4 µM | SNB-75 19.5 µM | SR 5.27 µM | SW-620 > 63.1 µM | T47D 33.6 µM | TK-10 52.4 µM | U-251 31.3 µM | UACC-257 > 100 µM | UACC-62 26.5 µM | UO-31 17.6 µM
29.4 µM: HCT-15

COC(=O)C1SC[C@H]2C(=O)N(c3ccccc3)C(=O)N12 (stereo partly specified)
inactive: 786-0 > 100 µM | A498 21.4 µM | A549 > 100 µM | ACHN > 100 µM | BT-549 > 100 µM | CAKI-1 > 100 µM | CCRF-CEM > 100 µM | COLO 205 > 100 µM | DU-145 > 100 µM | EKVX > 100 µM | HCC 2998 > 100 µM | HCT-116 > 100 µM | HL-60 > 100 µM | HOP-62 > 100 µM | HOP-92 85.3 µM | HT-29 > 100 µM | Hs-578T > 100 µM | IGROV-1 > 100 µM | K562 > 100 µM | KM12 > 100 µM | LOX IMVI > 100 µM | M14 > 100 µM | MCF7 > 100 µM | MDA-MB-231 > 100 µM | MDA-MB-435 > 100 µM | MDA-N > 100 µM | MOLT-4 > 100 µM | Malme-3M > 100 µM | NCI-H226 > 100 µM | NCI-H23 > 100 µM | NCI-H460 > 100 µM | NCI-H522 > 100 µM | NCI/ADR-RES > 100 µM | OVCAR-3 > 100 µM | OVCAR-4 > 100 µM | OVCAR-5 > 100 µM | OVCAR-8 > 100 µM | PC-3 > 100 µM | RPMI-8226 > 100 µM | RXF 393 > 100 µM | SF-268 > 100 µM | SF-295 > 100 µM | SF-539 > 100 µM | SK-MEL-28 > 100 µM | SK-MEL-2 > 100 µM | SK-MEL-5 > 100 µM | SK-OV-3 > 100 µM | SN12C > 100 µM | SNB-19 > 100 µM | SNB-75 > 100 µM | SR > 100 µM | SW-620 > 100 µM | T47D > 100 µM | TK-10 > 100 µM | U-251 > 100 µM | UACC-257 > 100 µM | UACC-62 > 100 µM | UO-31 > 100 µM
> 100 µM: HCT-15

CCCCCCCCCCCCCCC[C@@H](O)C[N+](C)(C)CCO
inactive: A498 19.1 µM | A549 3.49 µM | ACHN 3.95 µM | CCRF-CEM 1.25 µM | COLO 205 2.57 µM | DU-145 7.66 µM | EKVX 8.77 µM | HCC 2998 1.8 µM | HCT-116 3.99 µM | HOP-62 2.88 µM | HOP-92 1.27 µM | HT-29 1.2 µM | Hs-578T 1.38 µM | K562 2.41 µM | LOX IMVI 2.07 µM | M14 3.62 µM | MCF7 5.85 µM | MDA-MB-231 1.8 µM | MDA-MB-435 4.84 µM | MDA-N 5.98 µM | MOLT-4 2.17 µM | Malme-3M 2.81 µM | NCI-H226 2.79 µM | NCI-H23 2.06 µM | NCI-H460 1.52 µM | NCI-H522 1.42 µM | NCI/ADR-RES 13.6 µM | OVCAR-3 4.42 µM | OVCAR-4 4.2 µM | OVCAR-5 2.24 µM | OVCAR-8 5.13 µM | RPMI-8226 2.21 µM | SF-268 1.72 µM | SF-295 2.37 µM | SF-539 2.39 µM | SK-MEL-28 19.3 µM | SK-MEL-2 9.55 µM | SK-MEL-5 2.72 µM | SK-OV-3 7.76 µM | SN12C 5.61 µM | SNB-19 1.63 µM | SR 1.72 µM | SW-620 4.14 µM | T47D 6.82 µM | TK-10 1.31 µM | U-251 1.73 µM | UACC-257 10.2 µM | UACC-62 3.92 µM | UO-31 7.01 µM
2.6 µM: HCT-15
active: 786-0 0.927 µM | BT-549 0.759 µM | CAKI-1 0.977 µM | HL-60 0.149 µM | IGROV-1 0.434 µM | KM12 0.841 µM | PC-3 1.06 µM | RXF 393 1.11 µM | SNB-75 0.597 µM
